Test results from patent US7790763B2, “Substituted phenyl methanone derivatives” (Hoffmann-La Roche Inc., priority 2005, dated 2010).

Target: T1, mGlyT-1b (Mus musculus, UniProt P28571)
T1 construct: host or cells: Flp-in-CHO cells, stably transfected
T1 sequence (P28571 1-651 isoform P28571-2): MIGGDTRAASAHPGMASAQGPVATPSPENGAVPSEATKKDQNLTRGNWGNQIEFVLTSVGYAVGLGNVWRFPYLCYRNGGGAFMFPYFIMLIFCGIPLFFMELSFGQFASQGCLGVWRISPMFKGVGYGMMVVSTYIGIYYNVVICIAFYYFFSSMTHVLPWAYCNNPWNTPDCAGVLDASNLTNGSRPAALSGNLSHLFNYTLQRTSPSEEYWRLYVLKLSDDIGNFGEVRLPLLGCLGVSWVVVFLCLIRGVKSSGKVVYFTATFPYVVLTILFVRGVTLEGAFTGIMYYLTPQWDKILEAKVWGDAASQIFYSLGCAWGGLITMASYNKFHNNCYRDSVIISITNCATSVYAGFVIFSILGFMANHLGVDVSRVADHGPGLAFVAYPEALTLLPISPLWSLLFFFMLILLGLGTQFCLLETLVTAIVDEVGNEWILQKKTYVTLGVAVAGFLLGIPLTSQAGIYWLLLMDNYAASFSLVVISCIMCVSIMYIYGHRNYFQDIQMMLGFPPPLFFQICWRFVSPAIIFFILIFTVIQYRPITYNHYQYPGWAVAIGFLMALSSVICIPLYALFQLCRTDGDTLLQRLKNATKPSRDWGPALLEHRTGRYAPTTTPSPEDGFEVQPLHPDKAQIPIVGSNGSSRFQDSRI
Assay: Glycine uptake inhibition assay (mGlyT-1b)
Type: cell-based
Details: [3H]-glycine uptake, Flp-in-CHO cells transfected with mGlyT-1b cDNA, 20 min preincubation at 22° C.; read-out: IC50 (μM) at GlyT-1
Experimental: DMEM complete medium: Nutrient mixture F-12 (Gibco Life-technologies), fetal bovine serum (FBS) 5%, (Gibco life technologies), Penicillin/Streptomycin1% (Gibco life technologies), Hygromycin 0.6 mg/ml (Gibco life technologies), Glutamine 1 mM Gibco life technologies)
Uptake buffer (UB): 150 mM NaCl, 10 mM Hepes-Tris, pH 7.4, 1 mM CaCl2, 2.5 mM KCl, 2.5 mM MgSO4, 10 mM (+) D-glucose. Flp-in™-CHO (Invitrogen Cat n° R758-07)cells stably transfected with mGlyT1b cDNA.
Glycine Uptake Inhibition Assay (mGlyT-1b)
On day 1 mammalian cells, (Flp-in™-CHO), transfected with mGlyT-1b cDNA, were plated at the density of 40,000 cells/well in complete F-12 medium, without hygromycin in 96-well culture plates. On day 2, the medium was aspirated, and the cells were washed twice with uptake buffer (UB). The cells were then incubated for 20 min at 22° C. with either (i) no potential competitor, (ii) 10 mM non-radioactive glycine, (iii) a concentration of a potential inhibitor. A range of concentrations of the potential inhibitor was used to generate data for calculating the concentration of inhibitor resulting in 50% of the effect (e.g. IC50, the concentration of the competitor inhibiting glycine uptake of 50%). A solution was then immediately added containing [^3H]-glycine 60 nM (11-16 Ci/mmol) and 25 μM non-radioactive glycine. The plates were incubated with gentle shaking, and the reaction was stopped by aspiration of the mixture and washing (three times) with ice-cold UB. The cells were lysed with scintillation liquid, shaken 3 hours and the radioactivity in the cells was counted using a scintillation counter.

IC50 [µM]	Compound
1	CC(C)Oc1ccc(S(C)(=O)=O)cc1C(=O)N1CCC(Oc2ccc([N+](=O)[O-])cc2)CC1 [Example 4, (2-Isopropoxy-5-methanesulfonyl-phenyl)-[4-(4-nitro-phenoxy)-piperidin-1-yl]-methanone]
0.109	CNS(=O)(=O)c1ccc(OC2CCCC2)c(C(=O)N2CCC(Oc3ccc(C(F)(F)F)cc3)C2)c1 (centres unmarked) [Example 26, 4-Cyclopentyloxy-N-methyl-3-[3-(4-trifluoromethyl-phenoxy)-pyrrolidine-1-carbonyl]-benzenesulfonamide]
0.63	CC(C)Oc1ccc(S(C)(=O)=O)cc1C(=O)N1CCC(Oc2cc(C(F)(F)F)ccc2F)CC1 [Example 8, [4-(2-Fluoro-5-trifluoromethyl-phenoxy)-piperidin-1-yl]-(2-isopropoxy-5-methanesulfonyl-phenyl)-methanone]
0.7	CC(C)Oc1ccc(S(C)(=O)=O)cc1C(=O)N1CC(Oc2cccc(C(F)(F)F)c2)C1 [Example 22, (2-Isopropoxy-5-methanesulfonyl-phenyl)-[3-(3-trifluoromethyl-phenoxy)-azetidin-1-yl]-methanone]
0.93	CC(=O)c1ccc(OC2CCN(C(=O)c3cc(S(C)(=O)=O)ccc3OC(C)C)CC2)c(F)c1 [Example 5, 1-{3-Fluoro-4-[1-(2-isopropoxy-5-methanesulfonyl-benzoyl)-piperidin-4-yloxy]-phenyl}-ethanone]
0.87	CC(C)Oc1ccc(S(C)(=O)=O)cc1C(=O)N1CC(Oc2ccc(C(F)(F)F)cc2)C1 [Example 21, (2-Isopropoxy-5-methanesulfonyl-phenyl)-[3-(4-trifluoromethyl-phenoxy)-azetidin-1-yl]-methanone]
0.87	CC(C)Oc1ccc(S(C)(=O)=O)cc1C(=O)N1CCC(Oc2ccc3ccccc3c2)C1 (racemic) [Example 18, Rac-(2-Isopropoxy-5-methanesulfonyl-phenyl)-[3-(naphthalen-2-yloxy)-pyrrolidin-1-yl]-methanone]
0.39	C[C@H](Oc1ccc(S(C)(=O)=O)cc1C(=O)N1CC(Oc2ccc(C(F)(F)F)cc2)C1)C(F)(F)F [Example 23, [5-Methanesulfonyl-2-((S)-2,2,2-trifluoro-1-methyl-ethoxy)-phenyl]-[3-(4-trifluoromethyl-phenoxy)-azetidin-1-yl]-methanone]
0.078	CS(=O)(=O)c1ccc(N2CCOCC2)c(C(=O)N2CCC(Oc3ccc(C(F)(F)F)cc3)C2)c1 (centres unmarked) [Example 25, (5-Methanesulfonyl-2-morpholin-4-yl-phenyl)-[3-(4-trifluoromethyl-phenoxy)-pyrrolidin-1-yl]-methanone]
0.84	C[C@@H](Oc1ccc(S(C)(=O)=O)cc1C(=O)N1CC(Oc2ccc(C(F)(F)F)cc2)C1)C(F)(F)F [Example 24, [5-Methanesulfonyl-2-((R)-2,2,2-trifluoro-1-methyl-ethoxy)-phenyl]-[3-(4-trifluoromethyl-phenoxy)-azetidin-1-yl]-methanone]
0.55	CC(C)Oc1ccc(S(C)(=O)=O)cc1C(=O)N1CCC(Oc2ccc(C(F)(F)F)cc2)C1 (racemic) [Example 13, Rac-(2-Isopropoxy-5-methanesulfonyl-phenyl)-[3-(4-trifluoromethyl-phenoxy)-pyrrolidin-1-yl]-methanone]
